Measurements taken from PubChem BioAssay (NCI).
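A five-concentration, 48-hour dose response in 96-well plates underlies each endpoint, interpolated linearly between surrounding concentrations. GI50: concentration for 50% inhibition of growth. The concentration for full growth arrest is given as TGI.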

Key:
Test in all cases: NCI tumour cell line growth inhibition, 48 h
786-0 renal = system: 786-0 renal
A498 renal = system: A498 renal
A549 NSCLC = system: A549 NSCLC
ACHN renal = system: ACHN renal
CAKI-1 renal = system: CAKI-1 renal
CCRF-CEM leukemia = system: CCRF-CEM leukemia
COLO 205 colon = system: COLO 205 colon
DU-145 prostate = system: DU-145 prostate
EKVX NSCLC = system: EKVX NSCLC
HCC-2998 colon = system: HCC-2998 colon
HCT-116 colon = system: HCT-116 colon
HCT-15 colon = system: HCT-15 colon
HL-60(TB) leukemia = system: HL-60(TB) leukemia
HOP-62 NSCLC = system: HOP-62 NSCLC
HOP-92 NSCLC = system: HOP-92 NSCLC
HS 578T breast = system: HS 578T breast
HT29 colon = system: HT29 colon
IGROV1 ovarian = system: IGROV1 ovarian
K-562 leukemia = system: K-562 leukemia
KM12 colon = system: KM12 colon
LOX IMVI melanoma = system: LOX IMVI melanoma
M14 melanoma = system: M14 melanoma
MALME-3M melanoma = system: MALME-3M melanoma
MCF7 breast = system: MCF7 breast
MDA-MB-231 breast = system: MDA-MB-231 breast
MDA-MB-435 = system: MDA-MB-435
MOLT-4 leukemia = system: MOLT-4 leukemia
NCI-H226 lung = system: NCI-H226 lung
NCI-H23 lung = system: NCI-H23 lung
NCI-H460 lung = system: NCI-H460 lung
NCI-H522 lung = system: NCI-H522 lung
NCI/ADR-RES ovarian = system: NCI/ADR-RES ovarian
OVCAR-3 ovarian = system: OVCAR-3 ovarian
OVCAR-4 ovarian = system: OVCAR-4 ovarian
OVCAR-5 ovarian = system: OVCAR-5 ovarian
OVCAR-8 ovarian = system: OVCAR-8 ovarian
PC-3 prostate = system: PC-3 prostate
RPMI-8226 leukemia = system: RPMI-8226 leukemia
SF-268 CNS = system: SF-268 CNS
SF-295 CNS = system: SF-295 CNS
SF-539 CNS = system: SF-539 CNS
SK-MEL-28 melanoma = system: SK-MEL-28 melanoma
SK-MEL-5 melanoma = system: SK-MEL-5 melanoma
SK-OV-3 ovarian = system: SK-OV-3 ovarian
SN12C renal = system: SN12C renal
SNB-19 CNS = system: SNB-19 CNS
SNB-75 CNS = system: SNB-75 CNS
SR leukemia = system: SR leukemia
SW-620 colon = system: SW-620 colon
T-47D breast = system: T-47D breast
TK-10 renal = system: TK-10 renal
U251 CNS = system: U251 CNS
UACC-257 melanoma = system: UACC-257 melanoma
UACC-62 melanoma = system: UACC-62 melanoma
UO-31 renal = system: UO-31 renal

Cc1ccc(-n2c(-c3cc4c([nH]c5ccccc54)c(-c4cccc(O)c4)n3)n[nH]c2=S)cc1
GI50 (786-0 renal): 2600 nM | TGI (786-0 renal): 12800 nM | GI50 (A498 renal): 263 nM | TGI (A498 renal): 738 nM | GI50 (A549 NSCLC): 2340 nM | TGI (A549 NSCLC): 10400 nM | GI50 (ACHN renal): 2370 nM | TGI (ACHN renal): 15400 nM | GI50 (CAKI-1 renal): 1730 nM | TGI (CAKI-1 renal): 4900 nM | GI50 (CCRF-CEM leukemia): 682 nM | TGI (CCRF-CEM leukemia): 11600 nM | GI50 (COLO 205 colon): 2460 nM | TGI (COLO 205 colon): 8140 nM | GI50 (DU-145 prostate): 616 nM | TGI (DU-145 prostate): 6170 nM | GI50 (EKVX NSCLC): 1950 nM | TGI (EKVX NSCLC): 11100 nM | GI50 (HCC-2998 colon): 268 nM | TGI (HCC-2998 colon): 838 nM | GI50 (HCT-116 colon): 384 nM | TGI (HCT-116 colon): 10000 nM | GI50 (HCT-15 colon): 610 nM | TGI (HCT-15 colon): 6940 nM | GI50 (HL-60(TB) leukemia): 1080 nM | TGI (HL-60(TB) leukemia): 3430 nM | GI50 (HOP-62 NSCLC): 1240 nM | TGI (HOP-62 NSCLC): 4870 nM | GI50 (HOP-92 NSCLC): 4760 nM | TGI (HOP-92 NSCLC): 27400 nM | GI50 (HS 578T breast): 1740 nM | TGI (HS 578T breast): 36200 nM | GI50 (HT29 colon): 1360 nM | TGI (HT29 colon): 3680 nM | GI50 (IGROV1 ovarian): 704 nM | TGI (IGROV1 ovarian): 4740 nM | GI50 (K-562 leukemia): 523 nM | TGI (K-562 leukemia): > 100000 nM | GI50 (KM12 colon): 1150 nM | TGI (KM12 colon): 5100 nM | GI50 (LOX IMVI melanoma): 461 nM | TGI (LOX IMVI melanoma): 1970 nM | GI50 (M14 melanoma): 1100 nM | TGI (M14 melanoma): 3710 nM | GI50 (MALME-3M melanoma): 2570 nM | TGI (MALME-3M melanoma): 17600 nM | GI50 (MCF7 breast): 1800 nM | TGI (MCF7 breast): 10500 nM | GI50 (MDA-MB-231 breast): 1350 nM | TGI (MDA-MB-231 breast): 6350 nM | GI50 (MDA-MB-435): 649 nM | TGI (MDA-MB-435): 2750 nM | GI50 (MOLT-4 leukemia): 908 nM | TGI (MOLT-4 leukemia): 4760 nM | GI50 (NCI-H226 lung): 658 nM | TGI (NCI-H226 lung): 3940 nM | GI50 (NCI-H23 lung): 1670 nM | TGI (NCI-H23 lung): 9840 nM | GI50 (NCI-H460 lung): 393 nM | TGI (NCI-H460 lung): 10200 nM | GI50 (NCI-H522 lung): 861 nM | TGI (NCI-H522 lung): 5270 nM | GI50 (NCI/ADR-RES ovarian): 4140 nM | TGI (NCI/ADR-RES ovarian): 24100 nM | GI50 (OVCAR-3 ovarian): 399 nM | TGI (OVCAR-3 ovarian): 1860 nM | GI50 (OVCAR-4 ovarian): 2230 nM | TGI (OVCAR-4 ovarian): 11000 nM | GI50 (OVCAR-5 ovarian): 3730 nM | TGI (OVCAR-5 ovarian): 17100 nM | GI50 (OVCAR-8 ovarian): 442 nM | TGI (OVCAR-8 ovarian): 3670 nM | GI50 (PC-3 prostate): 2480 nM | TGI (PC-3 prostate): 42400 nM | GI50 (RPMI-8226 leukemia): 808 nM | TGI (RPMI-8226 leukemia): 3760 nM | GI50 (SF-268 CNS): 1320 nM | TGI (SF-268 CNS): 10600 nM | GI50 (SF-295 CNS): 1110 nM | TGI (SF-295 CNS): 3120 nM | GI50 (SF-539 CNS): 306 nM | TGI (SF-539 CNS): 1060 nM | GI50 (SK-MEL-28 melanoma): 628 nM | TGI (SK-MEL-28 melanoma): 4220 nM | GI50 (SK-MEL-5 melanoma): 1320 nM | TGI (SK-MEL-5 melanoma): 3310 nM | GI50 (SK-OV-3 ovarian): 1180 nM | TGI (SK-OV-3 ovarian): 4440 nM | GI50 (SN12C renal): 936 nM | TGI (SN12C renal): 6910 nM | GI50 (SNB-19 CNS): 403 nM | TGI (SNB-19 CNS): 3700 nM | GI50 (SNB-75 CNS): 1340 nM | TGI (SNB-75 CNS): 6170 nM | GI50 (SR leukemia): 443 nM | TGI (SR leukemia): 2070 nM | GI50 (SW-620 colon): 406 nM | TGI (SW-620 colon): 11800 nM | GI50 (T-47D breast): 1800 nM | TGI (T-47D breast): 11900 nM | GI50 (TK-10 renal): 3680 nM | TGI (TK-10 renal): 16200 nM | GI50 (U251 CNS): 371 nM | TGI (U251 CNS): 2220 nM | GI50 (UACC-257 melanoma): 2030 nM | TGI (UACC-257 melanoma): 7110 nM | GI50 (UACC-62 melanoma): 491 nM | TGI (UACC-62 melanoma): 2570 nM | GI50 (UO-31 renal): 2560 nM | TGI (UO-31 renal): 15000 nM
